Laboratory results: patent US20100029697A1, “SUBSTITUTED PYRIDO[3,2-E][1,2,4]TRIAZOLO[4,3-C]PYRIMIDINE DERIVATIVES AS CANNABINOID-1 RECEPTOR MODULATORS” (priority 2007, published 2010)

Legend:
[1] = target: recombinant human CB1 receptor (Homo sapiens, UniProt P21554); assay: Cannabinoid Receptor-1 (CB1) Binding Assay ([3H]CP-55940 displacement); conditions: recombinant human CB1 receptor in CHO cell membranes, 0.6 nM [3H]CP-55940
Protocol: Binding affinity determination is based on recombinant human CB1 receptor expressed in Chinese Hamster Ovary (CHO) cells (Felder et al, Mol. Pharmacol. 48: 443-450, 1995). Total assay volume is 250 μl (240 μl CB1 receptor membrane solution plus 5 μl test compound solution plus 5 μl [3H]CP-55940 solution). Final concentration of [3H]CP-55940 is 0.6 nM. Binding buffer contains 50 mM Tris-HCl, pH7.4, 2.5 mM EDTA, 5 mM MgCl2, 0.5 mg/mL fatty acid free bovine serum albumin and protease inhibitors (Cat#P8340, from Sigma). To initiate the binding reaction, 5 μl of radioligand solution is added, the mixture is incubated with gentle shaking on a shaker for 1.5 h at 30° C. The binding is terminated by using 96-well harvester and filtering through GF/C filter presoaked in 0.05% polyethylenimine. The bound radiolabel is quantitated using scintillation counter. Apparent binding affinities for various compounds are calculated from IC50 values (DeBlasi et al., Trends Pharmacol Sci 10: 227-229, 1989).

[2] = target: recombinant human CB1 receptor expressed in CHO cells (Homo sapiens, UniProt P21554); assay: Cannabinoid Receptor-1 (CB1) Functional Activity Assay (intracellular cAMP, forskolin-stimulated CB1-CHO cells); format: cell-based; conditions: for EC50: cAMP level in CB1-CHO cells with forskolin; for functional mode at CB1 receptor in the CB1 functional activity assay: cAMP readout in CB1-CHO cells
Protocol: The functional activation of CB1 receptor is based on recombinant human CB1 receptor expressed in CHO cells (Felder et al, Mol. Pharmacol. 48: 443-450, 1995). To determine the agonist activity or inverse agonist activity of any test compound, 50 ul of CB1-CHO cell suspension are mixed with test compound and 70 ul assay buffer containing 0.34 mM 3-isobutyl-1-methylxanthine and 5.1 uM of forskolin in 96-well plates. The assay buffer is comprised of Earle's Balanced Salt Solution supplemented with 5 mM MgCl2, 1 mM glutamine, 10 mM HEPES, and 1 mg/mL bovine serum albumin. The mixture is incubated at room temperature for 30 minutes, and terminated by adding 30 ul/well of 0.5M HCl. The total intracellular cAMP level is quantitated using the New England Nuclear Flashplate and cAMP radioimmunoassay kit.
To determine the antagonist activity of test compound, the reaction mixture also contains 0.5 nM of the agonist CP55940 (or 50 nM of methanandamide), and the reversal of the CP55940 (or methanandamide) effect is quantitated with increasing concentration of the test compound. Intracellular cAMP is determined as described above. An IC50 value for the test compound is calculated from the titration curve.

recombinant human CB1 receptor, sequence (P21554 whole entry): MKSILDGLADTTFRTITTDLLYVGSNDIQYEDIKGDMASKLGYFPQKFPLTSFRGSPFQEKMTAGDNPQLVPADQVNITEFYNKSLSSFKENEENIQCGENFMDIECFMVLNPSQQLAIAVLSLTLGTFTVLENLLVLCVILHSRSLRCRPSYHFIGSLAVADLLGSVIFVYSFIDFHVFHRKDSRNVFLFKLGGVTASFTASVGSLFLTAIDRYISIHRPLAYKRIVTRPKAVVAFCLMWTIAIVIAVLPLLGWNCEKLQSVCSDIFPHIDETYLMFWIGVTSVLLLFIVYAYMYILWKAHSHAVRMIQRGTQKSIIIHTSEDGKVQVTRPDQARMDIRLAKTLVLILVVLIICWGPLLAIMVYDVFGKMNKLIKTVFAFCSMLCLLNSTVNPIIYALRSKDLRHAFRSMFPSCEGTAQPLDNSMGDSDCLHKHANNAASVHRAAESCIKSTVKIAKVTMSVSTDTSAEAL
recombinant human CB1 receptor expressed in CHO cells, sequence (P21554 whole entry): as above

IC50 [1] | EC50 [2] | functional mode at CB1 receptor in the CB1 functional activity assay [2] | Compound
0.006 µM | < 0.1 µM | functional inverse agonists | CC(C)(C)c1nc2nc(-c3ccccc3Cl)c(-c3ccc(C#N)cc3)cc2c2n[nH]c(=O)n12 [Example 16, 4-[5-Tert-butyl-8-(2-chlorophenyl)-3-oxo-2,3-dihydropyrido[3,2-e][1,2,4]triazolo[4,3-c]pyrimidin-9-yl]benzonitrile]
0.011 µM | < 0.1 µM | functional inverse agonists | CC(C)(C)c1nc2nc(-c3ccccc3Cl)c(-c3ccc(-c4ncon4)cc3)cc2c2n[nH]c(=O)n12 [Example 32, 5-Tert-butyl-8-(2-chlorophenyl)-9-[4-(1,2,4-oxadiazol-3-yl)phenyl]pyrido[3,2-e][1,2,4]-triazolo[4,3-c]pyrimidin-3(2H)-one]
0.004 µM | < 0.1 µM | functional inverse agonists | CC(C)(C)c1nc2nc(-c3ccc(C#N)cc3C#N)c(-c3ccc(Cl)cc3)cc2c2n[nH]c(=O)n12 [Example 31, 4-[5-Tert-butyl-9-(4-chlorophenyl)-3-oxo-2,3-dihydropyrido[3,2-e][1,2,4]triazolo[4,3-c]pyrimidin-8-yl]isophthalonitrile]
0.006 µM | < 0.1 µM | functional inverse agonists | CC(C)(C)c1nc2nc(-c3ccccc3-c3ccc(F)cc3)c(-c3ccc(F)cc3)cc2c2n[nH]c(=O)n12 [Example 27, 5-Tert-butyl-8-(4′-fluorobiphenyl-2-yl)-9-(4-fluorophenyl)pyrido[3,2-e][1,2,4]triazolo[4,3-c]pyrimidin-3(2H)-one]
0.001 µM | < 0.1 µM | functional inverse agonists | CC(C)(C)c1nc2nc(-c3ccc(C#N)cc3Cl)c(-c3ccc(Cl)cc3)cc2c2n[nH]c(=O)n12 [Example 28, 4-[5-Tert-butyl-9-(4-chlorophenyl)-3-oxo-2,3-dihydropyrido[3,2-e][1,2,4]triazolo[4,3-c]pyrimidin-8-yl]-3-chlorobenzonitrile]
0.01 µM | < 0.1 µM | functional inverse agonists | CC(=O)c1ccc(-c2cc3c(nc2-c2ccccc2Cl)nc(C(C)(C)C)n2c(=O)[nH]nc32)cc1 [Example 9, 9-(4-Acetylphenyl)-5-tert-butyl-8-(2-chlorophenyl)pyrido[3,2-e][1,2,4]triazolo[4,3-c]pyrimidin-3(2H)-one]
0.002 µM | < 0.1 µM | functional inverse agonists | CC(C)(C)c1nc2nc(-c3ccccc3Cl)c(-c3ccc(Cl)cc3)cc2c2n[nH]c(=O)n12 [Example 1, 5-Tert-butyl-8-(2-chlorophenyl)-9-(4-chlorophenyl)pyrido[3,2-e][1,2,4]triazolo[4,3-c]pyrimidin-3(2H)-one]
